Laboratory results: ChEMBL document CHEMBL5375981, “Enhanced Tumor Targeting and Penetration of Proteolysis-Targeting Chimeras through iRGD Peptide Conjugation: A Strategy for Precise Protein Degradation in Breast Cancer” (J Med Chem, 2023)
The source made the active and inactive calls. The calls are words filed in the database; no cut-off is given here.

Legend:
[1] = Solubility in distilled water measured for 30 mins by ultraviolet spectrophotometry analysis; type: physicochemical
[2] = Stability of compound in PBS containing 5% serum at 50 uM measured after 72 hrs by LC-MS analysis; type: physicochemical, cell-free; settings: read-out: Stability
[3] = Drug release in PBS assessed as increase in (2S)-1-((R)-2-(tert-butyl)-17-((S)-4-(4-chlorophenyl)-2,3,9-trimethyl-6H-thieno[3,2-f][1,2,4]triazolo[4,3-a][1,4]diazepin-6-yl)-4,16-dioxo-6,9,12-trioxa-3,15-diazaheptadecanoyl)-4-hydroxy-N-((S)-1-(4-(4-methylthiazol-5-yl)phenyl)ethyl)pyrrolidine-2-carboxamide concentration at 50 uM in presence of GSH by LC-MS analysis; type: ADME; settings: buffer, TDE = time-dependent effect
[4] = biological target: Bromodomain-containing protein 4 (Homo sapiens) (UniProt O60885); assay: Induction of BRD4 degradation in human MDA-MB-231 cells harboring high integrin alphaVbeta3 expression at 300 nM incubated for 16 to 20 hrs by Western blot analysis; type: cell-based; settings: time 16-20 hrs
[5] = biological target: Bromodomain-containing protein 4 (Homo sapiens) (UniProt O60885); assay: Induction of BRD4 degradation in human L02 cells lacking integrin alphaVbeta3 expression at 300 nM incubated for 12 hrs by immunofluorescence staining based confocal microscopic analysis; type: cell-based
[6] = biological target: Bromodomain-containing protein 4 (Homo sapiens) (UniProt O60885); assay: Induction of BRD4 degradation in human MDA-MB-231 cells harboring high integrin alphaVbeta3 expression at 1 uM incubated for 12 hrs by immunofluorescence staining based confocal microscopic analysis; type: cell-based
MDA-MB-231 [7] = assay: Antiproliferative activity against human MDA-MB-231 cells harboring high integrin alphaVbeta3 expression assessed as inhibition of cell growth incubated for 72 hrs by CCK-8 assay; type: functional, cell-based; settings: MDA-MB-231, 72 h
MCF7 = assay: Antiproliferative activity against human MCF7 cells harboring low integrin alphaVbeta3 expression assessed as inhibition of cell growth incubated for 72 hrs by CCK-8 assay; type: functional, cell-based; settings: MCF7, 72 h
L02 = assay: Antiproliferative activity against human L02 cells harboring minimal integrin alphaVbeta3 expression assessed as inhibition of cell growth incubated for 72 hrs by CCK-8 assay; type: functional, cell-based; settings: L02, 72 h
[8] = biological target: Bromodomain-containing protein 4 (Homo sapiens) (UniProt O60885); assay: Induction of BRD4 degradation in human MDA-MB-231 cells harboring high integrin alphaVbeta3 expression assessed as reduction in BRD4 levels at 500 nM pretreated with NRP-1 inhibitor EG00229 for 2 hrs followed by compound addition and measured after 12 hrs by immunofluorescence staining based confocal microscopic analysis; type: cell-based
MDA-MB-231 [9] = assay: Antitumor activity against human MDA-MB-231 cells xenografted in BALB/C nude mouse assessed as tumor growth inhibition at 5 uM, iv administered every other day and measured after 21 days by vernier caliper method relative to control; type: functional; settings: MDA-MB-231, 504 h, time 21 day, read-out: TGI
MDA-MB-231 [10] = assay: Antitumor activity against human MDA-MB-231 cells xenografted in BALB/C nude mouse assessed as tumor growth inhibition at 8 uM, iv administered every other day and measured after 21 days by vernier caliper method relative to control; type: functional; settings: MDA-MB-231, 504 h, time 21 day, read-out: TGI
[11] = Toxicity in BALB/C mouse xenografted with human MDA-MB-231 cells assessed as weight loss at 5 to 8 uM, iv administered for 21 days and measured every 3 days; type: organism-based; settings: in vivo, 504 h, dose 5-8 µM, time 21 day
[12] = Toxicity in BALB/C mouse xenografted with human MDA-MB-231 cells assessed as adverse reactions at 5 to 8 uM, iv administered for 21 days and measured every 3 days; type: organism-based; settings: in vivo, 504 h, dose 5-8 µM, time 21 day
[13] = Toxicity in BALB/C mouse xenografted with human MDA-MB-231 cells assessed as effect on heart weight at 5 to 8 uM, iv administered every other day for 21 days; type: organism-based; settings: in vivo, 504 h, dose 5-8 µM, time 21 day
[14] = Toxicity in BALB/C mouse xenografted with human MDA-MB-231 cells assessed as effect on liver weight at 5 to 8 uM, iv administered every other day for 21 days; type: organism-based; settings: in vivo, 504 h, dose 5-8 µM, time 21 day
[15] = Toxicity in BALB/C mouse xenografted with human MDA-MB-231 cells assessed as effect on spleen weight at 5 to 8 uM, iv administered every other day for 21 days; type: organism-based; settings: in vivo, 504 h, dose 5-8 µM, time 21 day
[16] = Toxicity in BALB/C mouse xenografted with human MDA-MB-231 cells assessed as effect on lung weight at 5 to 8 uM, iv administered every other day for 21 days; type: organism-based; settings: in vivo, 504 h, dose 5-8 µM, time 21 day
[17] = Toxicity in BALB/C mouse xenografted with human MDA-MB-231 cells assessed as effect on kidney weight at 5 to 8 uM, iv administered every other day for 21 days; type: organism-based; settings: in vivo, 504 h, dose 5-8 µM, time 21 day
[18] = Toxicity in BALB/C mouse xenografted with human MDA-MB-231 cells assessed as heart damage at 5 to 8 uM, iv administered every other day for 21 days and measured 37 days post treatment by H and E staining based assay; type: organism-based; settings: in vivo, 1392 h, dose 5-8 µM, time 58 day
[19] = Toxicity in BALB/C mouse xenografted with human MDA-MB-231 cells assessed as liver damage at 5 to 8 uM, iv administered every other day for 21 days and measured 37 days post treatment by H and E staining based assay; type: organism-based; settings: in vivo, 1392 h, dose 5-8 µM, time 58 day
[20] = Toxicity in BALB/C mouse xenografted with human MDA-MB-231 cells assessed as spleen damage at 5 to 8 uM, iv administered every other day for 21 days and measured 37 days post treatment by H and E staining based assay; type: organism-based; settings: in vivo, 1392 h, dose 5-8 µM, time 58 day
[21] = Toxicity in BALB/C mouse xenografted with human MDA-MB-231 cells assessed as lung damage at 5 to 8 uM, iv administered every other day for 21 days and measured 37 days post treatment by H and E staining based assay; type: organism-based; settings: in vivo, 1392 h, dose 5-8 µM, time 58 day
[22] = Toxicity in BALB/C mouse xenografted with human MDA-MB-231 cells assessed as kidney damage at 5 to 8 uM, iv administered every other day for 21 days and measured 37 days post treatment by H and E staining based assay; type: organism-based; settings: in vivo, 1392 h, dose 5-8 µM, time 58 day
MDA-MB-231 [23] = assay: Antitumor activity against human MDA-MB-231 cells xenografted in BALB/C nude mouse assessed as inhibition of cell proliferation by measuring reduction in number of Ki67-stained cells at 5 to 8 uM, iv administered every other day and measured after 21 days by immunohistochemistry; type: functional, organism-based; settings: dose 5-8 µM, time 21.0 day
Mus musculus = assay: In vivo induction of BRD4 degradation in BALB/C mouse xenografted with human MDA-MB-231 cells assessed as reduction in BRD4 level in tumor at 5 to 8 uM, iv administered every other day and measured after 21 days by immunohistochemistry analysis; type: functional, organism-based; settings: dose 5-8 µM, time 21.0 day
[24] = Antitumor activity against patient-derived Breast cancer organoid assessed as inhibition of cell growth incubated for approximately 3 to 5 days by CCK-8 assay; type: functional, tissue-based; settings: Homo sapiens
Homo sapiens [25] = organism: Homo sapiens; assay: Antitumor activity against patient-derived Breast cancer organoid assessed as inhibition of cell growth at 0.5 to 1 uM incubated for 3 days by CCK-8 assay; type: functional, tissue-based; settings: dose 0.5-1 µM, time 3.0 day
Homo sapiens [26] = organism: Homo sapiens; assay: Antitumor activity against patient-derived Breast cancer organoid assessed as reduction in number of proliferating cells by measuring reduction in red fluorescence at 0.5 uM incubated for approximately 3 days by Edu incorporation assay; type: functional, tissue-based; settings: time 3.0 day
Homo sapiens [27] = organism: Homo sapiens; assay: Antitumor activity against patient-derived Breast cancer organoid assessed as increase in number of apoptotic cells by measuring increase in red fluorescence at 0.5 to 1 uM incubated for approximately 3 to 5 days by acridine orange/ethidium bromide double staining ssay; type: functional, cell-based; settings: dose 0.5-1 µM, time 3-5 day
Homo sapiens [28] = organism: Homo sapiens; assay: Antitumor activity against patient-derived Breast cancer organoid assessed as increase in number of apoptotic cells by measuring reduction in green fluorescence at 0.5 to 1 uM incubated for approximately 3 to 5 days by acridine orange/ethidium bromide double staining ssay; type: functional, cell-based; settings: dose 0.5-1 µM, time 3-5 day

Which solubility at 0.5 h [1] does the source give for Cc1ncsc1-c1ccc([C@H](C)NC(=O)[C@@H]2C[C@@H](OC(=O)OCCSSCCOC(=O)CCC(=O)NCCCC[C@@H]3NC(=O)[C@H](CC(=O)O)NC(=O)CNC(=O)[C@H](CCCNC(=N)N)NC(=O)[C@@H](N)CSSC[C@@H](C(=O)O)NC(=O)[C@H](CC(=O)O)NC(=O)[C@@H]4CCCN4C(=O)CNC3=O)CN2C(=O)[C@@H](NC(=O)COCCOCCOCCNC(=O)C[C@@H]2N=C(c3ccc(Cl)cc3)c3c(sc(C)c3C)-n3c(C)nnc32)C(C)(C)C)cc1 here?
The solubility at 0.5 h was over 10 mM.

What about the remaining at 72 h, 50 µM [2] of the same molecule?
The remaining at 72 h, 50 µM was 89.9%.

And the Drug metabolism [3]?
The Drug metabolism was “Tde”.

What about the Activity [4] of the same molecule?
The Activity was “Active”.

And the Activity [5]?
Its Activity is “inactive”.

What about the Activity [6] of the same molecule?
The Activity was “Active”.

And the IC50 (MDA-MB-231 [7])?
Its IC50 is 88 nM.

And the IC50 (MCF7)?
Its IC50 is 260 nM.

And the IC50 (L02)?
Its IC50 is 1500 nM.

And the Activity [8]?
Its Activity is “inactive”.

And the inhibition in vivo at 5 µM (MDA-MB-231 [9])?
Its inhibition in vivo at 5 µM is 62.3%.

And the inhibition in vivo at 8 µM (MDA-MB-231 [10])?
Its inhibition in vivo at 8 µM is 81.5%.

What about the Activity [11] of the same molecule?
The Activity was “Non-Toxic”.

And the Activity [12]?
The Activity was “Non-Toxic”.

And the Activity [13]?
Its Activity is “Non-Toxic”.

And the Activity [14]?
Its Activity is “Non-Toxic”.

And the Activity [15]?
Its Activity is “Non-Toxic”.

And the Activity [16]?
Its Activity is “Non-Toxic”.

What about the Activity [17] of the same molecule?
The Activity was “Non-Toxic”.

And the Activity [18]?
Its Activity is “Non-Toxic”.

What about the Activity [19] of the same molecule?
The Activity was “Non-Toxic”.

And the Activity [20]?
The Activity was “Non-Toxic”.

And the Activity [21]?
The Activity was “Non-Toxic”.

And the Activity [22]?
The Activity was “Non-Toxic”.

What about the Activity (MDA-MB-231 [23]) of the same molecule?
The Activity was “Active”.

What about the Activity (Mus musculus) of the same molecule?
Its Activity is “Active”.

What about the IC50 [24] of the same molecule?
Its IC50 is 950 nM.

And the Activity (Homo sapiens [25])?
The Activity was “Active”.

What about the Activity (Homo sapiens [26]) of the same molecule?
Its Activity is “Active”.

And the Activity (Homo sapiens [27])?
Its Activity is “Active”.

What about the Activity (Homo sapiens [28]) of the same molecule?
The Activity was “Active”.
